Results reported in PMC9481151, “Discovery of new symmetrical and asymmetrical nitrile-containing 1,4-dihydropyridine derivatives as dual kinases and P-glycoprotein inhibitors: synthesis, in vitro assays, and in silico studies” (Journal of Enzyme Inhibition and Medicinal Chemistry, 2022).

Key:
[1] = system: CCRF-CEM; assay: NCI single dose (10 µM) SRB screen; format: cell-based, human; conditions: leukaemia, 48 h
[2] = system: HL-60(TB); assay: NCI single dose (10 µM) SRB screen; format: cell-based, human; conditions: leukaemia, 48 h
[3] = system: K-562; assay: NCI single dose (10 µM) SRB screen; format: cell-based, human; conditions: leukaemia, 48 h
[4] = system: MOLT-4; assay: NCI single dose (10 µM) SRB screen; format: cell-based, human; conditions: leukaemia, 48 h
[5] = system: RPMI-8226; assay: NCI single dose (10 µM) SRB screen; format: cell-based, human; conditions: leukaemia, 48 h
[6] = system: SR; assay: NCI single dose (10 µM) SRB screen; format: cell-based, human; conditions: leukaemia, 48 h
[7] = system: A549/ATCC; assay: NCI single dose (10 µM) SRB screen; format: cell-based, human; conditions: non-small cell lung cancer, 48 h
[8] = system: EKVX; assay: NCI single dose (10 µM) SRB screen; format: cell-based, human; conditions: non-small cell lung cancer, 48 h
[9] = system: HOP-62; assay: NCI single dose (10 µM) SRB screen; format: cell-based, human; conditions: non-small cell lung cancer, 48 h
[10] = system: HOP-92; assay: NCI single dose (10 µM) SRB screen; format: cell-based, human; conditions: non-small cell lung cancer, 48 h
[11] = system: NCI-H23; assay: NCI single dose (10 µM) SRB screen; format: cell-based, human; conditions: non-small cell lung cancer, 48 h
[12] = system: NCI-H322M; assay: NCI single dose (10 µM) SRB screen; format: cell-based; conditions: non-small cell lung cancer, 48 h
[13] = system: NCI-H460; assay: NCI single dose (10 µM) SRB screen; format: cell-based, human; conditions: non-small cell lung cancer, 48 h
[14] = system: NCI-H522; assay: NCI single dose (10 µM) SRB screen; format: cell-based, human; conditions: non-small cell lung cancer, 48 h
[15] = system: COLO 205; assay: NCI single dose (10 µM) SRB screen; format: cell-based, human; conditions: colon cancer, 48 h
[16] = system: HCC-2998; assay: NCI single dose (10 µM) SRB screen; format: cell-based, human; conditions: colon cancer, 48 h
[17] = system: HCT-116; assay: NCI single dose (10 µM) SRB screen; format: cell-based, human; conditions: colon cancer, 48 h
[18] = system: HCT-15; assay: NCI single dose (10 µM) SRB screen; format: cell-based, human; conditions: colon cancer, 48 h
[19] = system: SW-620; assay: NCI single dose (10 µM) SRB screen; format: cell-based, human; conditions: colon cancer, 48 h
[20] = system: SF-268; assay: NCI single dose (10 µM) SRB screen; format: cell-based, human; conditions: CNS cancer, 48 h
[21] = system: SF-295; assay: NCI single dose (10 µM) SRB screen; format: cell-based, human; conditions: CNS cancer, 48 h
[22] = system: SF-539; assay: NCI single dose (10 µM) SRB screen; format: cell-based, human; conditions: CNS cancer, 48 h
[23] = system: SNB-19; assay: NCI single dose (10 µM) SRB screen; format: cell-based, human; conditions: CNS cancer, 48 h
[24] = system: SNB-75; assay: NCI single dose (10 µM) SRB screen; format: cell-based, human; conditions: CNS cancer, 48 h
[25] = system: U251; assay: NCI single dose (10 µM) SRB screen; format: cell-based, human; conditions: CNS cancer, 48 h
[26] = system: LOX IMVI; assay: NCI single dose (10 µM) SRB screen; format: cell-based, human; conditions: melanoma, 48 h
[27] = system: MALME-3M; assay: NCI single dose (10 µM) SRB screen; format: cell-based, human; conditions: melanoma, 48 h
[28] = system: M14; assay: NCI single dose (10 µM) SRB screen; format: cell-based, human; conditions: melanoma, 48 h
[29] = system: MDA-MB-435; assay: NCI single dose (10 µM) SRB screen; format: cell-based, human; conditions: melanoma, 48 h
[30] = system: SK-MEL-28; assay: NCI single dose (10 µM) SRB screen; format: cell-based, human; conditions: melanoma, 48 h
[31] = system: UACC-257; assay: NCI single dose (10 µM) SRB screen; format: cell-based, human; conditions: melanoma, 48 h
[32] = system: UACC-62; assay: NCI single dose (10 µM) SRB screen; format: cell-based, human; conditions: melanoma, 48 h
[33] = system: OVCAR-3; assay: NCI single dose (10 µM) SRB screen; format: cell-based, human; conditions: ovarian cancer, 48 h
[34] = system: OVCAR-4; assay: NCI single dose (10 µM) SRB screen; format: cell-based, human; conditions: ovarian cancer, 48 h
[35] = system: OVCAR-8; assay: NCI single dose (10 µM) SRB screen; format: cell-based, human; conditions: ovarian cancer, 48 h
[36] = system: NCI/ADR-RES; assay: NCI single dose (10 µM) SRB screen; format: cell-based, human; conditions: ovarian cancer, 48 h
[37] = system: SK-OV-3; assay: NCI single dose (10 µM) SRB screen; format: cell-based, human; conditions: ovarian cancer, 48 h
[38] = system: 786-0; assay: NCI single dose (10 µM) SRB screen; format: cell-based, human; conditions: renal cancer, 48 h
[39] = system: A498; assay: NCI single dose (10 µM) SRB screen; format: cell-based, human; conditions: renal cancer, 48 h
[40] = system: RXF 393; assay: NCI single dose (10 µM) SRB screen; format: cell-based, human; conditions: renal cancer, 48 h
[41] = system: SN12C; assay: NCI single dose (10 µM) SRB screen; format: cell-based, human; conditions: renal cancer, 48 h
[42] = system: UO-31; assay: NCI single dose (10 µM) SRB screen; format: cell-based, human; conditions: renal cancer, 48 h
[43] = system: PC-3; assay: NCI single dose (10 µM) SRB screen; format: cell-based, human; conditions: prostate cancer, 48 h
[44] = system: DU-145; assay: NCI single dose (10 µM) SRB screen; format: cell-based, human; conditions: prostate cancer, 48 h
[45] = system: MCF7; assay: NCI single dose (10 µM) SRB screen; format: cell-based, human; conditions: breast cancer, 48 h
[46] = system: MDA-MB-231; assay: NCI single dose (10 µM) SRB screen; format: cell-based, human; conditions: breast cancer, 48 h
[47] = system: BT-549; assay: NCI single dose (10 µM) SRB screen; format: cell-based, human; conditions: breast cancer, 48 h
[48] = system: T-47D; assay: NCI single dose (10 µM) SRB screen; format: cell-based, human; conditions: breast cancer, 48 h
[49] = system: MDA-MB-468; assay: NCI single dose (10 µM) SRB screen; format: cell-based, human; conditions: breast cancer, 48 h
[50] = system: NCI 60 cancer cell lines; assay: NCI single dose (10 µM) SRB screen, mean over panel; format: cell-based, human; conditions: mean over 60 cell lines, 48 h
[51] = system: Staphylococcus aureus; assay: Agar well diffusion method
[52] = system: Bacillus subtilis; assay: Agar well diffusion method
[53] = system: Pseudomonas aeruginosa; assay: Agar well diffusion method

COCCOC(=O)C1=C(C)NC(C)=C(C(=O)OC)C1c1cccc(C#N)c1 (racemic) [Compound 2d, (±)-3-(2-Methoxyethyl) 5-methyl 4-(3-cyanophenyl)-2,6-dimethyl-1,4-dihydropyridine-3,5-dicarboxylate]
15 mm: zone of inhibition at 1000 µg/mL ([51]; Staphylococcus aureus, 24 h, read-out: Diameter of inhibition zone, S. aureus)
15%: GI% SNB-75 [24]
43.5%: % activity index, B. subtilis ([52]; relative to ciprofloxacin)
−2%: Mean GI% [50]
62.5%: % activity index, S. aureus ([51]; relative to ciprofloxacin)
10 mm: zone of inhibition at 1000 µg/mL ([52]; Bacillus subtilis, 24 h, read-out: Diameter of inhibition zone, B. subtilis)
60.9%: % activity index, P. aeruginosa ([53]; relative to ciprofloxacin)
14 mm: zone of inhibition at 1000 µg/mL ([53]; Pseudomonas aeruginosa, 24 h, read-out: Diameter of inhibition zone, P. aeruginosa)
– (Only GI% ≥ 10 are shown): GI% CCRF-CEM [1] | GI% HL-60(TB) [2] | GI% K-562 [3] | GI% MOLT-4 [4] | GI% RPMI-8226 [5] | GI% SR [6] | GI% A549/ATCC [7] | GI% EKVX [8] | GI% HOP-62 [9] | GI% HOP-92 [10] | GI% NCI-H23 [11] | GI% NCI-H322M [12] | GI% NCI-H460 [13] | GI% NCI-H522 [14] | GI% COLO 205 [15] | GI% HCC-2998 [16] | GI% HCT-116 [17] | GI% HCT-15 [18] | GI% SW-620 [19] | GI% SF-268 [20] | GI% SF-295 [21] | GI% SF-539 [22] | GI% SNB-19 [23] | GI% U251 [25] | GI% LOX IMVI [26] | GI% MALME-3M [27] | GI% M14 [28] | GI% MDA-MB-435 [29] | GI% SK-MEL-28 [30] | GI% UACC-257 [31] | GI% UACC-62 [32] | GI% OVCAR-3 [33] | GI% OVCAR-4 [34] | GI% OVCAR-8 [35] | GI% NCI/ADR-RES [36] | GI% SK-OV-3 [37] | GI% 786-0 [38] | GI% RXF 393 [40] | GI% SN12C [41] | GI% UO-31 [42] | GI% PC-3 [43] | GI% DU-145 [44] | GI% MCF7 [45] | GI% MDA-MB-231 [46] | GI% BT-549 [47] | GI% T-47D [48] | GI% MDA-MB-468 [49]
12%: GI% A498 [39]
